Reference: US20220160750A1, “SINGLE-NUCLEI CHARACTERIZATION OF AMYOTROPHIC LATERAL SCLEROSIS FRONTAL CORTEX” (President and Fellows of Harvard College, priority 2020, published 2022)
Where a SMILES comes first, the peptide text is derived from it. The star is where a group is joined. Cbz = O=C(OCc1ccccc1)*

How the values were obtained:
[1] = tested on: neurons derived from human Pluripotent Stem Cells (hPSC); assay: TDP-43 localisation (immunofluorescence) after proteasome inhibitor treatment of hPSC-derived neurons; assay type: cell-based; conditions: MG132 applied for 24 hrs
Procedure: (§1) In contrast, DEGs identified in THY1-cells were connected to cellular stresses previously associated with ALS^1,2 (FIG. 7D) and many were shared with transcriptional changes identified in patients' excitatory cells as a whole (FIG. 8B). […] It was next asked if aspects of these changes could be modeled in vitro using neurons derived from human Pluripotent Stem Cells (hPSC) (FIG. 15A).
Human embryonic stem cells were cultured in mTESR (Stemcell technologies) on matrigel (Corning). Neurons were generated from HuES-3-Hb9:GFP based on the motor neuron differentiation protocol previously described^27. Upon completion of the differentiation protocol, cells were sorted via flow-cytometry based on GFP signal intensity to yield GFP-positive neurons that were plated on PDL/laminin-coated plates (Sigma, Life technologies). Neurons were maintained in Neurobasal medium (Life Technologies) supplemented with N2 (Stemcell technologies), B27 (Life technologies), glutamax (Life technologies), non-essential amino acids (Life technologies), and neurotrophic factors (BDNF, GDNF, CNTF), and were grown for 28 days before the application of the proteasome inhibitors MG132 for 24 hrs.

[2] = tested on: neurons derived from human Pluripotent Stem Cells (hPSC); assay: Bulk RNA-sequencing of hPSC-derived neurons after proteasome inhibitor treatment; assay type: cell-based; conditions: MG132 applied for 24 hrs, compared with excitatory neurons from sALS patients
Procedure: as §1
Human embryonic stem cells were cultured in mTESR (Stemcell technologies) on matrigel (Corning). Neurons were generated from HuES-3-Hb9:GFP based on the motor neuron differentiation protocol previously described^27. Upon completion of the differentiation protocol, cells were sorted via flow-cytometry based on GFP signal intensity to yield GFP-positive neurons that were plated on PDL/laminin-coated plates (Sigma, Life technologies). […]
RNA was extracted using RNeasy Plus kit (Qiagen), libraries were prepared using the Illumina TruSeq RNA kit v2 according to the manufacturer's directions, and sequenced at the Broad Institute core with samples randomly assigned between two flow chambers. […] The read counts were obtained from the aligned BAM-files in R using Rsubread. Differential gene expression was analyzed from the read counts in DESeq2 using a Wald's test for the treatment dosage and controlling for the sequencing flow cell.

CC(C)C[C@@H](C=O)NC(=O)[C@H](CC(C)C)NC(=O)[C@H](CC(C)C)NC(=O)OCc1ccccc1 [MG132] (Cbz-Leu-Leu-Leu-aldehyde)
nuclear loss of TDP-43 [1]: sufficient to induce nuclear loss of TDP-43
transcriptomic changes after treatment (RNA-sequencing) [2]: widespread transcriptomic changes after treatment
